From BindingDB's records for doi:10.7270/Q2BR8QM3 (Nmmlsc, 2008)
Where a name gives a salt, the structure may show the parent alone.

Target: T1, Bcl-2-like protein 2 (Homo sapiens, UniProt Q92843)
T1 sequence (Q92843 whole entry): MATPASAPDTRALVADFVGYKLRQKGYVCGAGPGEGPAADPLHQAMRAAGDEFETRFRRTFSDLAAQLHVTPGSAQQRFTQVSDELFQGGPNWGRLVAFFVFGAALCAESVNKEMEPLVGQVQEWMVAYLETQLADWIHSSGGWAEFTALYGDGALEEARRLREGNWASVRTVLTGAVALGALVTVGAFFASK
Experiment: Bcl-W/Bim binding regulators – biochemical, multiplexed, bead-based flow cytometry, fluorescence, dose response (AID 1330)

[1] = inactive by the depositor's call

Compound	EC50 [1] [µM]	EC50 [µM]
O=C(CSc1ccc2nnc(-c3ccncc3)n2n1)Nc1nccs1 [SMR000320332]	11.1	
Cc1nc2ncccn2c1-c1csc(Nc2ccccc2)n1 [4-(2-methyl-3-imidazo[1,2-a]pyrimidinyl)-N-phenyl-2-thiazolamine]	8.71	
COc1cc(/C=C2\CC/C(=C\c3cc(OC)c(O)c(OC)c3)C2=O)cc(OC)c1O [(2E,5E)-2,5-bis[(4-hydroxy-3,5-dimethoxyphenyl)methylidene]cyclopentan-1-one]		3.31
c1ccc(Nc2cccc(Nc3ccccc3)n2)cc1 [N,N'-diphenyl-2,6-pyridinediamine]		2.58
O=S1(=O)N=C(N(CCO)N=C/C=C/c2ccccc2)c2ccccc21	20.6	
O=C(Nc1ccc2nc(-c3ccco3)c(-c3ccco3)nc2c1)N1CCN(c2ccccn2)CC1	14.9	
COc1ccc(/C=C/C(=O)c2cc(Br)ccc(=O)c2O)cc1 [MLS000702099]	27.5	
Nc1c(C(=O)NCC2CCCO2)sc2nc3c(c(-c4ccco4)c12)CC/C3=C\c1ccco1 (centres undefined) [SMR000259502]		2.36
CC(C)(C)NC(=O)COc1ccc(CNc2ccc3[nH]c(O)nc3c2)cc1 [N-tert-butyl-2-[4-[[(2-oxidanylidene-1,3-dihydrobenzimidazol-5-yl)amino]methyl]phenoxy]ethanamide]	6.29	
Cc1ccc(/C=C/C2=Cc3c(sc(NC(=O)CSc4nnc(N)[nH]4)c3C#N)C(C)(C)C2)o1 [2-[(5-azanyl-1H-1,2,4-triazol-3-yl)sulfanyl]-N-[3-cyano-7,7-dimethyl-5-[(E)-2-(5-methylfuran-2-yl)ethenyl]-6H-1-benzothiophen-2-yl]ethanamide]	6.38	
Nc1c(C(=O)NC2CC2)sc2nc3c(c(-c4ccco4)c12)CC/C3=C/c1ccco1 [SMR000259554]		2.6
Cc1nc2ncccn2c1-c1csc(Nc2ccc(O)cc2)n1		0.33
COc1ccc(-n2c(=O)c3ccccc3c3ccccc3c2=O)c(OC)c1	16.3	
Fc1ccc(C2=Nc3cccc4cccc(c34)N2)cc1 [MLS000687139]	9.76	
OCCN1CCN(CCCc2c3c(cc4c2CCC4)CCC3)CC1 [MLS000698424]		16.6
CCOC(=O)c1nc(Nc2ccc(C(=O)OC)cc2)c2ccccc2n1 [ethyl 4-(4-methoxycarbonylanilino)quinazoline-2-carboxylate]	16.7	
O=C(NCc1ccccc1)c1ccc2nc(-c3ccco3)c(-c3ccco3)nc2c1 [2,3-bis(furan-2-yl)-N-(phenylmethyl)quinoxaline-6-carboxamide]		6.03
Cc1nnc2ccc(-c3cccc(NC(=O)c4ccco4)c3)nn12 [SMR000324305]		7.89
Cc1ccc(CNc2ccc3c(c2)OCO3)c(C)c1 [1,3-benzodioxol-5-yl(2,4-dimethylbenzyl)amine]	44.2	
COc1ccccc1NC1=C(NC(C)=O)C(=O)c2ccccc2C1=O [N-[3-(2-methoxyanilino)-1,4-dioxonaphthalen-2-yl]acetamide]	4	
COc1cc(CNc2ccc3[nH]c(=O)[nH]c3c2)cc(Br)c1OCC(=O)NC(C)(C)C [2-[2-bromo-6-methoxy-4-[[(2-oxo-1,3-dihydrobenzimidazol-5-yl)amino]methyl]phenoxy]-N-tert-butylacetamide]	1.47	
Cc1ccc(C=NN(C)C2=NS(=O)(=O)c3ccccc32)o1 [N-methyl-N-[(5-methyl-2-furanyl)methylideneamino]-1,1-dioxo-1,2-benzothiazol-3-amine]	16.6	
CCN1C(=O)/C(=C/C=C2\C=CN(CC)c3ccccc32)SC1=S	15.9	

Compound	EC50 [1] [µM]	EC50 [µM]
CCOC(=O)c1c(NC(C)=O)sc2c(O)c(Br)cc(Br)c12	40.3	
COc1ccc2c3c(cccc13)N(C)N=C2C [MLS000554700]		1.56
CN(N=Cc1cccnc1)C1=NS(=O)(=O)c2ccccc21 [SMR000207578]	17.3	
CCN(CC)c1ccc(-c2nn3c(-c4cccnc4)nnc3s2)cc1	12	
CCN(CC)S(=O)(=O)c1cccc(C(=O)NN=Cc2ccc(O)c(O)c2O)c1		5.13
O=C1c2ccccc2-c2onc3ccc(NCCCn4ccnc4)c1c23 [SMR000044769]		1.11
CNCc1ccccc1Sc1ccc(O)c(O)c1 [SMR000230497]		42.4
CN=c1scc(-c2cccs2)n1N=Cc1ccc(O)c(O)c1O [SMR000242177]		5.05
O=C1C=CC(C=NNC(=O)C(=Cc2ccc([N+](=O)[O-])cc2)NC(=O)c2ccccc2)C(O)=C1O (centres undefined) [MLS000530401]		4.76
Cc1ccc(C(=O)/C=C/c2ccc(-c3ccc(C)cc3)o2)cc1 [1-p-Tolyl-3-(5-p-tolyl-furan-2-yl)-propenone]	1.02	
CN1CCN(C2=C(Cl)C(=O)C(c3cnc(N4CCCCC4)s3)=C(Cl)C2=O)CC1	0.04	
CN(C)c1ncc(C2=C(Cl)C(=O)C(N3CCCC3)=C(Cl)C2=O)s1	0.05	
CC(=O)c1ccc(NC(=O)c2ccc3nc(-c4ccco4)c(-c4ccco4)nc3c2)cc1 [N-(4-acetylphenyl)-2,3-di-2-furyl-6-quinoxalinecarboxamide]	3.97	
CCOc1cccc(CNc2ccc(O)cc2)c1OCc1ccc(Cl)cc1 [4-[[2-[(4-chlorophenyl)methoxy]-3-ethoxyphenyl]methylamino]phenol]	10.2	
Nc1ccc(C2=Nc3cccc4cccc(c34)N2)cc1 [SMR000175908]	15.7	
O=C(NCCO)c1ccc2nc(-c3ccco3)c(-c3ccco3)nc2c1 [SMR000121771]	11.2	
O=C(NCc1ccccn1)c1ccc2nc(-c3ccco3)c(-c3ccco3)nc2c1 [2,3-di-2-furyl-N-(pyridin-2-ylmethyl)quinoxaline-6-carboxamide]		7.22
COc1ccc(OC)c(-n2c(=O)c3ccccc3c3ccccc3c2=O)c1 [SMR000236434]	18	
CCC(=O)N(CC)C1C(=O)C(=O)c2ccccc2C1=O (centres undefined) [N-ethyl-N-(1-hydroxy-3,4-dioxo-2-naphthalenyl)propanamide]		0.92
COc1cccc(CN=Nc2nn3cnnc3c3ccccc23)c1 [N-[1-(3-Methoxy-phenyl)-meth-(E)-ylidene]-N'-[1,2,4]triazolo[3,4-a]phthalazin-6-yl-hydrazine]		2.43
Nc1c(C(=O)NCc2ccco2)sc2nc3c(cc12)C(=O)CCC3 [SMR000072940]	31.8	
COCCNc1[nH]c(=S)nc2cc(OC)c(OC)cc12	3.86	
COc1ccc2nc(-c3ccco3)c(-c3ccco3)nc2c1 [2,3-di-2-furyl-6-methoxyquinoxaline]	28.3	

Compound	EC50 [1] [µM]	EC50 [µM]
CN(N=C/C=C/c1ccccc1)C1=NS(=O)(=O)c2ccccc21 [(1E,2E)-3-phenylacrylaldehyde (1,1-dioxido-1,2-benzisothiazol-3-yl)(methyl)hydrazone]	3.67	
Cc1ccc(NC2=C(NC(=O)c3ccccc3)C(=O)c3ccccc3C2=O)cc1Cl [MLS000392290]	4.34	
CC1N(C)c2cccc3cccc(c23)N1C [1,2,3-trimethyl-2,3-dihydro-1H-perimidine]	2.26	
c1coc(C2=Nc3cccc4cccc(c34)N2)c1 [2-(2-furanyl)-1H-perimidine]	6.62	
c1ccc(-c2nc(N3CCCCCC3)c3ccccc3n2)nc1 [SMR000046752]	21.7	
CCC(/C=C1\Sc2ccc(OC)cc2N1CCO)=C\c1sc2ccc(OC)cc2[n+]1CCO		22.1
Cc1cc(-c2nnc3n2N=C(c2ccc(-c4ccccc4)cc2)CS3)[nH]n1 [MLS000082991]	7.58	
CCOc1cccc(CNc2ccc(O)cc2)c1OCc1ccccc1Cl [MLS000580486]	6.13	
O=C(/C=C/c1ccccc1Cl)c1ccccc(=O)c1O [3-[(E)-3-(2-chlorophenyl)prop-2-enoyl]-2-oxidanyl-cyclohepta-2,4,6-trien-1-one]	11.8	
Cc1ccc(-c2cc(-c3ccc(C)o3)nc(N)c2C#N)cc1 [2-amino-6-(5-methylfuran-2-yl)-4-(4-methylphenyl)pyridine-3-carbonitrile]	18.5	
COc1cc(C2Nc3cccc4cccc(c34)N2)cc(OC)c1O [4-(2,3-dihydro-1H-perimidin-2-yl)-2,6-dimethoxyphenol]		3.25
CC(=O)NC1=C(NC2CCS(=O)(=O)C2)C(=O)c2ccccc2C1=O (centres undefined) [N-[3-[(1,1-dioxothiolan-3-yl)amino]-1,4-dioxonaphthalen-2-yl]acetamide]	3.49	
COc1ccc(CCNC(=O)c2ccc3nc(-c4ccco4)c(-c4ccco4)nc3c2)cc1OC [N-[2-(3,4-dimethoxyphenyl)ethyl]-2,3-di-2-furylquinoxaline-6-carboxamide]	12.2	
COCCN=c1scc(-c2ccco2)n1N=Cc1ccc(O)c(O)c1O		1.81
CCOC(=O)C1CCN(C(=O)Nc2ccc3nc(-c4ccco4)c(-c4ccco4)nc3c2)CC1 [MLS000113285]		4.93
CCOC(=O)c1c(O)nc2ccc(Cl)c3c2c1-c1ccccc1C3=O [MLS000704595]	6.14	
COc1cc(CNc2ccc(N3CCCC3)cc2)cc(Cl)c1OC [N-[(3-chloranyl-4,5-dimethoxy-phenyl)methyl]-4-pyrrolidin-1-yl-aniline]	3.72	
COc1cc(C=NNC(=O)CN(Cc2ccco2)S(=O)(=O)c2ccccc2)ccc1O [N-(2-furanylmethyl)-N-[2-[[(E)-(3-methoxy-4-oxo-1-cyclohexa-2,5-dienylidene)methyl]hydrazo]-2-oxoethyl]benzenesulfonamide]		15.3
COCCCn1c(N)c(C(=O)Nc2sc3c(c2C(=O)OC)CCCC3)c2nc3ccccc3nc21 [MLS000595323]	2.34	
COc1cccc(CN=Nc2nn3cnnc3c3ccccc23)c1O		0.49
Cc1cc(N)ccc1N1CCCC1 [3-methyl-4-(1-pyrrolidinyl)aniline;hydrochloride]		3.96
CC(=NNC(=O)c1cc(O)c(O)c(O)c1)c1ccc([N+](=O)[O-])cc1 [SMR000312589]		4.03
Cc1ccnc(Nc2nc(-c3c(C)nc4sccn34)cs2)c1 [[4-(6-Methyl-imidazo[2,1-b]thiazol-5-yl)-thiazol-2-yl]-(4-methyl-pyridin-2-yl)-amine]	15.7	
